# Assay results as given in patent US5434171A, “Preparation of 3,4,4-trisubstituted-piperidinyl-N-alkylcarboxylates and intermediates” (priority 1993, dated 1995).
# Where a name gives a salt, the structure may show the parent alone.
# Assays:
# [1] = Description: Alternatively, a crystalline salt of compound 19F.B. (free base) can be prepared as illustrated in Scheme 2 supra. Crystallization studies were conducted using 17 different acids with three solvents; ethyl acetate, acetone, and ethanol.
# pKa determination = type: physicochemical; conditions: 67% aq. dmf
SMILES,stability of crystalline salt of 19F.B. [1],pKa (pKa determination)
Cl [hydrochloric],crystalline salts stable at 25 °C,–
"CC(C)COC(=O)CN [Isobutyl glycine, p-toluenesulfonic acid salt]",–,7.68
O=C(O)C[C@H](O)C(=O)O [L-malic],crystalline salts stable at 25 °C,–
